Measurements published in patent publication US8835660B2, “Method for extracting organic compounds from aqueous mixtures” (The Regents of the University of California, priority 2010, dated 2014).
Like-named read-outs stand apart in the source and are kept apart here. Blank lines part the entries; values can stand above or below the compound they belong to.

How the values were obtained:
[1] = cloud-point
[2] = for Water in DEB / AcOH in DEB / AcOH in water (final in DEB) / D = AcOH in DEB/AcOH in water: 25° C., single extraction
[3] = Distribution of hydroxymethylfurfural and furfural between water and DEB phases; assay type: physicochemical; details: 25° C., single extraction; for Amount of HMF in DEB phase (g) (final in DEB phase) / Amount of furfural in DEB phase (g) (final in DEB phase): mass balance
Procedure: The amounts of hydroxymethylfurfural and furfural in water phase were measured
using HPLC (see above for details). […] Distribution coefficient is reported on the basis of HPLC results of aqueous phase and that of mass balance of both the phases. The amount of hydroxymethylfurfural in DEB phase may be quantified using gas chromatography. Water measurements of the separated DEB phase containing hydroxymethylfurfural may be carried out using a Karl Fischer apparatus.
Distribution coefficient is reported on the basis of HPLC results of aqueous phase and that of mass balance of both the phases. The amount of furfural in DEB phase may be quantified using gas chromatography. Water measurements of the separated DEB phase containing furfural may be carried out using a Karl Fischer apparatus.

[4] = Distribution of ethanol and isobutanol between water and DEB phases; assay type: physicochemical; details: for Amount of EtOH in water (final) / D = conc. of EtOH in DEB/conc. of EtOH in water / Amount of EtOH in DEB (final) / Distribution coefficient of isobutanol (DEB/water) / Amount of iBuOH in water (final) / Amount of iBuOH in DEB (final): single extraction; for Amount of EtOH in DEB (final) / Amount of iBuOH in DEB (final): mass balance
Procedure: The amount of ethanol and isobutanol in water phase was measured using HPLC (see above for details). The concentrations of ethanol taken were: 8, 6, 3, 2, 1 and 0.5 wt %.
Distribution coefficient is reported on the basis of HPLC results of aqueous phase and that of mass balance of both the phases. Experiments are currently underway to determine the amount of ethanol, iso butanol in DEB phase. Gas chromatography will be used to quantify the amount of ethanol and isobutanol present in the DEB phase. Water measurements will be done using a Karl Fischer apparatus.
Here also, distribution coefficient is reported on the basis of HPLC results of aqueous phase and that of mass balance of both the phase.

[5] = 4.91 g DEB, 0.33 g AcOH initially in 4.1 g water
[6] = 5.8 g DEB, 0.17 g AcOH initially in 4.2 g water
[7] = 6.5 g DEB, 0.07 g AcOH initially in 4.3 g water
[8] = 5.01 g DEB, 0.0132 g HMF initially in 5.01 g water
[9] = 5.01 g DEB, 0.0512 g HMF initially in 5.11 g water
[10] = 5.02 g DEB, 0.0251 g HMF initially in 5.03 g water
[11] = 4.63 g DEB, 0.99 g EtOH initially in 4.62 g water
[12] = 4.71 g DEB, 0.31 g EtOH initially in 4.70 g water
[13] = 4.85 g DEB, 0.16 g EtOH initially in 4.86 g water
[14] = 4.92 g DEB, 0.11 g EtOH initially in 4.89 g water
[15] = 4.97 g DEB, 0.06 g EtOH initially in 4.98 g water
[16] = 5.02 g DEB, 0.03 g EtOH initially in 5.03 g water
[17] = 4.98 g DEB, 0.0491 g furfural initially in 5.01 g water
[18] = 5.02 g DEB, 0.0242 g furfural initially in 4.98 g water
[19] = 5.11 g DEB, 0.0141 g furfural initially in 5.05 g water
[20] = 4.76 g DEB, 0.26 g iBuOH initially in 4.74 g water
[21] = 4.88 g DEB, 0.13 g iBuOH initially in 4.89 g water
[22] = 4.93 g DEB, 0.071 g iBuOH initially in 4.92 g water
[23] = 5.08 g DEB, 0.028 g iBuOH initially in 5.03 g water

DEB solubility in water [1]: less than 10 ppm
Compound: CCCCOCCOCCOCCCC [DEB, diethylene glycol dibutyl ether]

Water in DEB [2, 5]: 300 µg
Water in DEB [2, 6]: 100 µg
Water in DEB [2, 7]: 90 µg
water content in the DEB phase ([2]; after contact experiment with acetic acid solutions): less than 300 ppm
Compound: water

Amount of HMF in water phase (g) (final) [3, 8]: 0.0083 g
D = conc. of HMF in DEB/conc. of HMF in water [3, 8]: 0.61
Amount of HMF in DEB phase (g) (final in DEB phase) [3, 8]: 0.0050 g
Amount of HMF in water phase (g) (final) [3, 9]: 0.0321 g
D = conc. of HMF in DEB/conc. of HMF in water [3, 9]: 0.59
Amount of HMF in DEB phase (g) (final in DEB phase) [3, 9]: 0.0191 g
Amount of HMF in water phase (g) (final) [3, 10]: 0.0161 g
D = conc. of HMF in DEB/conc. of HMF in water [3, 10]: 0.54
Amount of HMF in DEB phase (g) (final in DEB phase) [3, 10]: 0.0088 g
Compound: O=Cc1ccc(CO)o1 [hydroxymethylfurfural]

Amount of EtOH in water (final) [4, 11]: 0.51 grams
D = conc. of EtOH in DEB/conc. of EtOH in water [4, 11]: 0.94
Amount of EtOH in DEB (final) [4, 11]: 0.48 grams
Amount of EtOH in water (final) [4, 12]: 0.15 grams
D = conc. of EtOH in DEB/conc. of EtOH in water [4, 12]: 1.06
Amount of EtOH in DEB (final) [4, 12]: 0.16 grams
Amount of EtOH in water (final) [4, 13]: 0.073 grams
D = conc. of EtOH in DEB/conc. of EtOH in water [4, 13]: 1.2
Amount of EtOH in DEB (final) [4, 13]: 0.087 grams
Amount of EtOH in water (final) [4, 14]: 0.052 grams
D = conc. of EtOH in DEB/conc. of EtOH in water [4, 14]: 1.11
Amount of EtOH in DEB (final) [4, 14]: 0.058 grams
Amount of EtOH in water (final) [4, 15]: 0.031 grams
D = conc. of EtOH in DEB/conc. of EtOH in water [4, 15]: 0.93
Amount of EtOH in DEB (final) [4, 15]: 0.029 grams
Amount of EtOH in water (final) [4, 16]: 0.014 grams
D = conc. of EtOH in DEB/conc. of EtOH in water [4, 16]: 1.16
Amount of EtOH in DEB (final) [4, 16]: 0.016 grams
Compound: CCO [ethanol]

AcOH in DEB [2, 5]: 0.171 grams
AcOH in water (final in DEB) [2, 5]: 0.163 grams
D = AcOH in DEB/AcOH in water [2, 5]: 1.1
AcOH in DEB [2, 6]: 0.088 grams
AcOH in water (final in DEB) [2, 6]: 0.082 grams
D = AcOH in DEB/AcOH in water [2, 6]: 1.08
AcOH in DEB [2, 7]: 0.033 grams
AcOH in water (final in DEB) [2, 7]: 0.034 grams
D = AcOH in DEB/AcOH in water [2, 7]: 0.98
Compound: CC(=O)O [acetic acid]

Compound: O=Cc1ccco1 [furfural]
Amount of furfural in water phase (g) (final) [3, 17]: 0.0249 g
D = conc. of furfural in DEB/conc. of furfural in water [3, 17]: 0.98
Amount of furfural in DEB phase (g) (final in DEB phase) [3, 17]: 0.0242 g
Amount of furfural in water phase (g) (final) [3, 18]: 0.0161 g
D = conc. of furfural in DEB/conc. of furfural in water [3, 18]: 0.91
Amount of furfural in DEB phase (g) (final in DEB phase) [3, 18]: 0.0088 g
Amount of furfural in water phase (g) (final) [3, 19]: 0.0069 g
D = conc. of furfural in DEB/conc. of furfural in water [3, 19]: 1.03
Amount of furfural in DEB phase (g) (final in DEB phase) [3, 19]: 0.0071 g

measured distribution coefficients ([4]; 5, 3, 2, and 1 wt % of isobutanol): 2.5-3.5
concentration in DEB relative to concentration in water at equilibrium ([4]; DEB and water phases in equilibrium): 2-3 times
Distribution coefficient of isobutanol (DEB/water) [4, 20]: 2.71
Distribution coefficient of isobutanol (DEB/water) [4, 21]: 3.33
Distribution coefficient of isobutanol (DEB/water) [4, 22]: 2.72
Distribution coefficient of isobutanol (DEB/water) [4, 23]: 3.59
Amount of iBuOH in water (final) [4, 20]: 0.07 grams
Amount of iBuOH in DEB (final) [4, 20]: 0.19 grams
Amount of iBuOH in water (final) [4, 21]: 0.03 grams
Amount of iBuOH in DEB (final) [4, 21]: 0.10 grams
Amount of iBuOH in water (final) [4, 22]: 0.018 grams
Amount of iBuOH in DEB (final) [4, 22]: 0.053 grams
Amount of iBuOH in water (final) [4, 23]: 0.0061 grams
Amount of iBuOH in DEB (final) [4, 23]: 0.0219 grams
Compound: CC(C)CO [isobutanol]
